The values that follow come from paper PMC10486604 (Cancers, 2023).

The structures appear in SMILES notation. Where two headings read alike, the source gives them in different places.

The test system of series [1] is LoVo. Kind of series: In vitro proliferation (MTT) assay in presence and absence of NE, LoVo. It counts as cell-based. The settings on record: Homo sapiens, 72 h. The procedure: (§1) The in vitro cytotoxicity was evaluated in cancer cell lines NCI-H292 and LoVo after a 72-h continuous exposure to the presence or absence of 20 nM NE using MTT assays (ATCC, Manassas, VA, USA). IC50 values were determined as the concentration of compound required for 50% inhibition of cell viability.

The conditions of series [2]: payload 1 dosed directly 1 mg/kg IV, 786-O tumor-bearing mice, cited from earlier work.
The test system of series [3] is NCI-H292. Kind of series: In vitro proliferation (MTT) assay in presence and absence of NE, NCI-H292. To be noted: Homo sapiens, 72 h. Format: cell-based. The procedure: as §1
Series [4] in a line: In vivo pharmacokinetics in 786-O tumor-bearing mice. The settings on record: female, NMRI nu/nu, mouse, iv, 4 mg/kg. The procedure: Plasma and tumor samples were collected and frozen at <−15 °C until sample analysis. Samples were analyzed for concentrations of respective SMDCs and the released payload 1 by LC/MS/MS. […] All pharmacokinetic parameters were calculated by non-compartmental methods.

The subject of series [5] is LXFL529. The series can be described thus: PDX model LXFL529 (NSCLC), subcutaneous. It counts as in vivo, mouse. To be noted: across PDX models. As for the experimental part: Studies were conducted according to all applicable international, national, and local laws and followed the national guidelines for the Care and Use of Laboratory Animals of the Society of Laboratory Animal Science (GV-SOLAS). All animal experiment protocols were approved by the Regional Council Committee on the Ethics of Animal Experiments. Non-small-cell lung (LXFL529) and renal (RXF2667) PDX mouse models comprised six groups each with 10 animals. Tumor fragments (3–4 mm edge length) were transplanted, and tumor growth was monitored until a median size of about 120–150 mm^3 was achieved. […] Both experiments were terminated after a three-week recovery phase on day 63. Animals were monitored at least twice daily on working days and at least once daily on weekends (tumor size and body weight measurement). Colon (CXF2068) and triple-negative breast cancer (TNBC) (MAXF BR120) PDX mouse models were performed as described above with changes in schedule. […] The statistical significance of antitumor efficacy was analyzed by the non-parametric Kruskal–Wallis test, followed by Dunn’s method for multiple comparisons using GraphPad Prism bioanalytic software (version 9.10), with p < 0.05 as significant. Additionally, a nonpaired t-test was performed using GraphPad Prism (version 9.10).

The subject of series [6] is MA4296. Kind of series: Orthotopic TNBC PDX model MA4296. To be noted: orthotopic TNBC PDX models, both schedules. Format: in vivo, mouse. As for the experimental part: Two orthotopic TNBC PDX mouse models were performed. Tumor cells were inoculated into the mammary fat pad of mice. Therefore, the mice were anesthetized shortly before surgery. After disinfection of the skin, mice received a small incision in the skin between the 4th and 5th dug. Each mouse was implanted with 2.5 × 10^6 (MA4296) or 5 × 10^6 (MA15191) cells. Treatment started on day 20 after inoculation, when palpable tumor sizes reached 127 mm^3 (day 33 for MA15191). […] Tumors were measured twice weekly with calipers, and their volume was calculated with the following formula: (length × width^2)/2. The body weight was also determined two times weekly. Reasons for termination were tumor size > 1.5 cm^3 or poor general condition. At the end of the study, tissue sampling for IHC and PCR analyses was performed. The statistical analysis was performed using mixed-effect analysis with Tukey’s multiple comparisons test (GraphPad Prism 8.4.2) to calculate significance in tumor growth inhibition between vehicle and treatment groups over time. The Kruskal–Wallis test was used to determine significance at study days 43 and 47. Additionally, the unpaired t-test was performed.

The target of series [7] is T1, human NE (Homo sapiens, UniProt P08246).
T1 sequence (P08246 30-267): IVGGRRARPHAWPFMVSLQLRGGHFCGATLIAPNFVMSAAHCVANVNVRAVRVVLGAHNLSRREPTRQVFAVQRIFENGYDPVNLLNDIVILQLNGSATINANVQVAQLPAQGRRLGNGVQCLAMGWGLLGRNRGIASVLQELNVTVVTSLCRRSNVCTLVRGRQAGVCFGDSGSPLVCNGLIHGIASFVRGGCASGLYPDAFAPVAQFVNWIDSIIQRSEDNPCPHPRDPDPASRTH
Kind of series: Human NE biochemical cleavage assay. The settings on record: read-out: Km (cleavage to payload 1). The procedure:
Then, 125 μL of pre-heated buffer (100 mM Tris pH 7.5, 150 mM NaCl, 10 mM CaCl2, and 0.05% BSA) was added to each incubation. The reaction was started by adding 0.5 or 1 nM activated mouse elastase (according to manufacturer’s protocol) or human NE to the reaction vials. A negative control without elastase was run under the same conditions. The reaction was stopped at 0, 4.5, 8, and 12 min by the addition of acidified acetonitrile/0.2% formic acid. Camptothecin was used as internal standard for the LC/MS/MS analysis.

With `CCc1c2c(nc3ccccc13)-c1cc3c(c(=O)n1C2)COC(=O)[C@]3(O)CC` [compound 1, 7-ethyl camptothecin], the half-maximal inhibitory concentration (IC50) in series [1] (absence of hNE, read-out: LoVo IC50) worked out at 1.9 nM; in series [1] (presence of 20 nM hNE, read-out: LoVo + hNE IC50) it was 1.85 nM; in series [3] (absence of hNE, read-out: NCI H292 IC50) it was 1.54 nM; in series [3] (presence of 20 nM hNE, read-out: NCI H292 + hNE IC50), 1.35 nM. For the same molecule, in series [2], the “AUCplasma of payload 1 (VIP126)” value was 301 ng·h/mL. Moreover, the “AUCtumor of payload 1 (VIP126)” value in series [2] is 185 ng·h/mL. The “AUCtumor/AUCplasma of payload 1 (VIP126)” value in series [2] is on record as 0.61; in series [2] (listed as Payload 1 (VIP126)) it was 0.616.
Take `CCCNC(=O)Nc1cccc(S(=O)(=O)Nc2cccc([C@H](CC(=O)O)NC(=O)Nc3ccc(NC(=O)NCCOCCOCCOCCC(=O)N[C@@H](CC(=O)O)C(=O)N4CCC[C@H]4C(=O)N[C@H](C(=O)O[C@]4(CC)C(=O)OCc5c4cc4n(c5=O)Cc5c-4nc4ccccc4c5CC)C(C)C)cc3)c2)c1` [8e2]: in series [4], the half-life was 1.3 h.
`CCCNC(=O)Nc1cccc(S(=O)(=O)Nc2cccc([C@@H](CC(=O)O)NC(=O)Nc3ccc(NC(=O)NCCOCCOCCOCCC(=O)N[C@@H](CC(=O)O)C(=O)N4CCC[C@H]4C(=O)N[C@H](C(=O)O[C@]4(CC)C(=O)OCc5c4cc4n(c5=O)Cc5c-4nc4ccccc4c5CC)C(C)C)cc3)c2)c1` [VIP236]: in series [5], the “Tolerability (weight loss)” value is on record as “well tolerated”. Also, in series [6], the Tolerability result is on record as “well tolerated”. In series [4], this molecule gave a half-life of 0.807 h. The Km in series [7] (enzyme concentration 0.5 nmol) came out at 9.4 µM; in series [7] (enzyme concentration 1.0 nmol), 9.6 µM.
